According to publication PMC9798004 (Frontiers in Psychiatry, 2022):

Tests used:
Type in all cases: cell-based
ADRA2C = biological target: T1, ADRA2C (Homo sapiens, UniProt P18825); assay: PathHunter β-arrestin assay
T1 sequence (P18825 1-462): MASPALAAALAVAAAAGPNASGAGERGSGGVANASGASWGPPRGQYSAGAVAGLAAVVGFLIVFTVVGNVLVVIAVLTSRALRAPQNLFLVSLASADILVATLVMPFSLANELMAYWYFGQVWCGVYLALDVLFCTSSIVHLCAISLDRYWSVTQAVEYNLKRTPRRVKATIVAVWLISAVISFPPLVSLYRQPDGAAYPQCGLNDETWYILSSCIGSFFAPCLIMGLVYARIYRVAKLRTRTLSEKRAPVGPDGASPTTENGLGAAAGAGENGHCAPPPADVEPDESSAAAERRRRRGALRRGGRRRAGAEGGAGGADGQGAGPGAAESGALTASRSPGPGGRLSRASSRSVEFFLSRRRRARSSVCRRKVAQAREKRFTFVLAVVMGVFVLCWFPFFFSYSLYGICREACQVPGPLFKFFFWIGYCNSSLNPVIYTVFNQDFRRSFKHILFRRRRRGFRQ

CHRM3 = CHRM3 (Homo sapiens, UniProt P20309)
CHRM3, sequence (P20309 whole entry): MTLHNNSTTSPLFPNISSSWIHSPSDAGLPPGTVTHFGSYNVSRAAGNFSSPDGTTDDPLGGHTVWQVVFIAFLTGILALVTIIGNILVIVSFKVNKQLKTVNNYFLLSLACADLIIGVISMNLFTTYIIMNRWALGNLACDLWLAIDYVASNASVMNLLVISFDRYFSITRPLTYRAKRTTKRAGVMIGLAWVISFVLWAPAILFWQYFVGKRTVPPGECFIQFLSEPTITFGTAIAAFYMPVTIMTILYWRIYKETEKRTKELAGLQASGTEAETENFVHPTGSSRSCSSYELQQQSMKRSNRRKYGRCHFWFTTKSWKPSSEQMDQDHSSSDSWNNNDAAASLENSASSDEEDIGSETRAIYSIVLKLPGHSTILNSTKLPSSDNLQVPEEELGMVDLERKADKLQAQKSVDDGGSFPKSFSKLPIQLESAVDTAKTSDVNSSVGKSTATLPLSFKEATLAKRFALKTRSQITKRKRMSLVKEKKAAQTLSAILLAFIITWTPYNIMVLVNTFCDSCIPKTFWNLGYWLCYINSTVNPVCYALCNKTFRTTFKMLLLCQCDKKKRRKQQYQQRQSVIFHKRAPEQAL

CNR1 (CB1) = biological target: T2, CNR1 (CB1) (Homo sapiens, UniProt P21554); assay: PathHunter β-arrestin assay; conditions: agonist mode
T2 construct: host or cells: CHO
T2 sequence (P21554 whole entry): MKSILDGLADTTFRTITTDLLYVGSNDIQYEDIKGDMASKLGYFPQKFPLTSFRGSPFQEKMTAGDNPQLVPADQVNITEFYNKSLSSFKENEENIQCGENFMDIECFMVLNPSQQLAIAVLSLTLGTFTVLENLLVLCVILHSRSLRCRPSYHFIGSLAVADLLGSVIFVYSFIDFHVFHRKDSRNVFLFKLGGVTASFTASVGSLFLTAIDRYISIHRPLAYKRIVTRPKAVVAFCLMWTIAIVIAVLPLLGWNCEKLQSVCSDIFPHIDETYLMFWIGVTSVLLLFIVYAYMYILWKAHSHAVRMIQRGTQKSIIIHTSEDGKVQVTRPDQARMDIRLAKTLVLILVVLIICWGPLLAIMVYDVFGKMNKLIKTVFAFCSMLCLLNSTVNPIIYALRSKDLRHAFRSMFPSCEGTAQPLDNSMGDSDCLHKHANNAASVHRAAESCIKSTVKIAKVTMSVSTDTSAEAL

FPR1 = biological target: T3, FPR1 (Homo sapiens, UniProt P21462); assay: PathHunter β-arrestin assay; conditions: antagonist mode vs EC80 of control agonist, 10-point curve
T3 sequence (P21462 1-350): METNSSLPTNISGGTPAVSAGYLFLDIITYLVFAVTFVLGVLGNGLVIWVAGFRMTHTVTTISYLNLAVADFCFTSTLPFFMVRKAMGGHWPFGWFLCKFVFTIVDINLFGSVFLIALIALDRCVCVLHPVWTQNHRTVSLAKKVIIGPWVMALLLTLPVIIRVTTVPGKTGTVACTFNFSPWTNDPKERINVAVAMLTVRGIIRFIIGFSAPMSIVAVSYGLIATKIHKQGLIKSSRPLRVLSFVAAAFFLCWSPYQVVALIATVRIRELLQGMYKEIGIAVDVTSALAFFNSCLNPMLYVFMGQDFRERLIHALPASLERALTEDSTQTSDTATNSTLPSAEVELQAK

GALR1 = biological target: T4, GALR1 (Homo sapiens, UniProt P47211); assay: PathHunter β-arrestin assay; conditions: antagonist mode, up to 30 μM
T4 construct: purchased Eurofins DiscoverX (PathHunter gpcrMAX)
T4 sequence (P47211 whole entry): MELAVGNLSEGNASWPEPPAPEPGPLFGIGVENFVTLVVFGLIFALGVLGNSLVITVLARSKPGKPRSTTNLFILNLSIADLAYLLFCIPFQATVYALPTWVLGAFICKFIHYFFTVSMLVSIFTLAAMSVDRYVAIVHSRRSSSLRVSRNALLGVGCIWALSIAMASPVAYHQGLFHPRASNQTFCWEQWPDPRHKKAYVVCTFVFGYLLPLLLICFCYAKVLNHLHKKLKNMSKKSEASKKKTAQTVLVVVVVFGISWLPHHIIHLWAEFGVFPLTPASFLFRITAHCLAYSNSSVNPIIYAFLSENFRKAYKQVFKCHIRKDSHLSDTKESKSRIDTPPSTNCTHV

GALR2 = biological target: T5, GALR2 (Homo sapiens, UniProt O43603); assay: PathHunter β-arrestin assay; conditions: antagonist mode, up to 30 μM
T5 construct: purchased Eurofins DiscoverX (PathHunter gpcrMAX)
T5 sequence (O43603 whole entry): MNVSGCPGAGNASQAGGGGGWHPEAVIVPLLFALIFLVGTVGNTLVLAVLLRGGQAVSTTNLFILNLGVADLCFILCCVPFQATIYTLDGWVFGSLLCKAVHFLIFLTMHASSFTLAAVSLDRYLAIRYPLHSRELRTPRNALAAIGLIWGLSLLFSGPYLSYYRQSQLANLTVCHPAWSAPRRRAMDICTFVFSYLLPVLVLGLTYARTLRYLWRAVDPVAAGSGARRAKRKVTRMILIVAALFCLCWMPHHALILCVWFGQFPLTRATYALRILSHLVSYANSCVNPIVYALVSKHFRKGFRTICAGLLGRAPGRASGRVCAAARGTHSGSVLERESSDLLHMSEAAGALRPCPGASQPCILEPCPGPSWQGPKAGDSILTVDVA

GIPR = biological target: T6, GIPR (Homo sapiens, UniProt P48546); assay: PathHunter β-arrestin assay; conditions: antagonist mode, up to 30 μM
T6 construct: purchased Eurofins DiscoverX (PathHunter gpcrMAX)
T6 sequence (P48546 22-466): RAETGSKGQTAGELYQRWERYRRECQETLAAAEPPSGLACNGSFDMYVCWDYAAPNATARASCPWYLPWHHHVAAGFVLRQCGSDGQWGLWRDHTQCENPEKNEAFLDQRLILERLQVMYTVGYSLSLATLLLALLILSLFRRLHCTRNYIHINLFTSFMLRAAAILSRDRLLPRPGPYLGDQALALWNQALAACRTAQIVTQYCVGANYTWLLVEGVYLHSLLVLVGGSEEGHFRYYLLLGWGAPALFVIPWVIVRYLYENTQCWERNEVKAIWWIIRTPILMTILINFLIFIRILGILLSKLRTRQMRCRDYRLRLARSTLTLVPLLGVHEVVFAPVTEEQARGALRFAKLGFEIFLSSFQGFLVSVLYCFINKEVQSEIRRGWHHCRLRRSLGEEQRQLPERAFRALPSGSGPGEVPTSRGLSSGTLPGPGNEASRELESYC

GPR119 = biological target: T7, GPR119 (Homo sapiens, UniProt Q8TDV5); assay: PathHunter β-arrestin assay; conditions: antagonist mode, 30 μM
T7 construct: purchased Eurofins DiscoverX (PathHunter gpcrMAX)
T7 sequence (Q8TDV5 1-335): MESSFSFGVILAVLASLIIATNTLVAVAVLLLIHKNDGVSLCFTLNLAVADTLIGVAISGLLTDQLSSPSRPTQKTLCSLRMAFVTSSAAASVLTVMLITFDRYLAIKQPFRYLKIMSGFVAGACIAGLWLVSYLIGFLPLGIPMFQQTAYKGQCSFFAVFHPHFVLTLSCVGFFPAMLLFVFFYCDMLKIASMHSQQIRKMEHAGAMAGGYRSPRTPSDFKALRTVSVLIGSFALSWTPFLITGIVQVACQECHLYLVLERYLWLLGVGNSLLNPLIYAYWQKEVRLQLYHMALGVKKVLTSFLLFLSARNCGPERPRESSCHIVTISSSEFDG

CCR10 = biological target: T8, CCR10 (Homo sapiens, UniProt P46092); assay: PathHunter β-arrestin assay; conditions: antagonist mode vs EC80 of control agonist, 10-point curve
T8 sequence (P46092 1-362): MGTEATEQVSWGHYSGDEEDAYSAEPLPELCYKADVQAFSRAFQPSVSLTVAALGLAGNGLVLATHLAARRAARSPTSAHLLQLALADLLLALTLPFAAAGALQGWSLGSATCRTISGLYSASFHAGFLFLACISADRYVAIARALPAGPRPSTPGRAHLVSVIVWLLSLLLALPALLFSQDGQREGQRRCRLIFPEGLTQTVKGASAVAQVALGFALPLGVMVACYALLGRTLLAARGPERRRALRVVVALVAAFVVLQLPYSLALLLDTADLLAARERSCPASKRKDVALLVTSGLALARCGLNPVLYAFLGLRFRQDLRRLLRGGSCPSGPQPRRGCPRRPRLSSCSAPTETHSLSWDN
In short: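 RC50 values derive from four-parameter fits of normalized responses across ten concentrations (1.5–30 μM), run in technical replicate. In antagonist mode, cells received the appropriate agonist at its EC80.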

MRGPRX2 = biological target: T9, MRGPRX2 (Homo sapiens, UniProt Q96LB1); assay: PathHunter β-arrestin assay; conditions: antagonist mode vs EC80 of control agonist, 10-point curve
T9 sequence (Q96LB1 1-330): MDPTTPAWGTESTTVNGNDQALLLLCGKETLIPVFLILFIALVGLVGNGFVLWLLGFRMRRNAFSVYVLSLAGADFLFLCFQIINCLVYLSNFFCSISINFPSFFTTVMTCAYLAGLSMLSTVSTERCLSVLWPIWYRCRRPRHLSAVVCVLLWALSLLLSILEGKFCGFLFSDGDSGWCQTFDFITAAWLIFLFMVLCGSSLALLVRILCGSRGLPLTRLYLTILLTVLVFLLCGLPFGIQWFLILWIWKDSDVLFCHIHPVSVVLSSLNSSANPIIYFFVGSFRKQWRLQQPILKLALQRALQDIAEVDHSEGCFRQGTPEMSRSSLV

P2RY6 = P2RY6 (Homo sapiens, UniProt Q15077); assay: PathHunter β-arrestin assay; conditions: antagonist mode, up to 30 μM
P2RY6, sequence (Q15077 whole entry): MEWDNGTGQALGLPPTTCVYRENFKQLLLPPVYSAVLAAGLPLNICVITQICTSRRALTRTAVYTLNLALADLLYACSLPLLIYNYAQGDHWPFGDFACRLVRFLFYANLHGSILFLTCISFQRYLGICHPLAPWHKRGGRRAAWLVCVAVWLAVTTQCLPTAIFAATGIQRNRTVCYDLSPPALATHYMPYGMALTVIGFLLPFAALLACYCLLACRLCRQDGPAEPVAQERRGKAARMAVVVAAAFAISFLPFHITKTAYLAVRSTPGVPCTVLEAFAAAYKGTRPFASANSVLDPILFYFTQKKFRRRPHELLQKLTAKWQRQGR

HRH1 = HRH1 (Homo sapiens, UniProt P35367)
HRH1, sequence (P35367 whole entry): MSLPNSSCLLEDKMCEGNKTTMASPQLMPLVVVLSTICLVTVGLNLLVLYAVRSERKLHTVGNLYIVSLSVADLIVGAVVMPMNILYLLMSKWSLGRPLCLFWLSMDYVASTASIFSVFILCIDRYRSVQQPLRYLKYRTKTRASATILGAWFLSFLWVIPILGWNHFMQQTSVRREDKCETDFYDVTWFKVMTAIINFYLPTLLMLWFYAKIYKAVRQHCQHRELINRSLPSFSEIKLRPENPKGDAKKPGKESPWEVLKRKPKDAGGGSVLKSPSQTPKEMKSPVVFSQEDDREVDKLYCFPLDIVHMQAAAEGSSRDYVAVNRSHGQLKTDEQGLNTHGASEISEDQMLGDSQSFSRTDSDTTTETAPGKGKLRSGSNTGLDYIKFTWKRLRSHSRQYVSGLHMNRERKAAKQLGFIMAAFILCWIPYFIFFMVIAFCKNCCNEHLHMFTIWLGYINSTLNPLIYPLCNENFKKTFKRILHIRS

HRH2 = HRH2 (Homo sapiens, UniProt P25021); assay: PathHunter β-arrestin assay; conditions: antagonist mode vs EC80 of control agonist, 10-point curve
HRH2, sequence (P25021 whole entry): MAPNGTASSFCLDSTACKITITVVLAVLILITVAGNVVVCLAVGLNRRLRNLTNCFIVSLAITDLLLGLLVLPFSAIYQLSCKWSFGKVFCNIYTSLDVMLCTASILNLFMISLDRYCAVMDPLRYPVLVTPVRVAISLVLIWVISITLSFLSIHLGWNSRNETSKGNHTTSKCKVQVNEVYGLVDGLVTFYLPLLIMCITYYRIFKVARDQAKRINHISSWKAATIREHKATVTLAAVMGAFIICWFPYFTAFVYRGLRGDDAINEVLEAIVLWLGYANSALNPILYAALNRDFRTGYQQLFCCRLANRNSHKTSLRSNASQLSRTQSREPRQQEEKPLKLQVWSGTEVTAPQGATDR

MC5R = MC5R (Homo sapiens, UniProt P33032); assay: PathHunter β-arrestin assay; conditions: antagonist mode vs EC80 of control agonist, 10-point curve
MC5R, sequence (P33032 whole entry): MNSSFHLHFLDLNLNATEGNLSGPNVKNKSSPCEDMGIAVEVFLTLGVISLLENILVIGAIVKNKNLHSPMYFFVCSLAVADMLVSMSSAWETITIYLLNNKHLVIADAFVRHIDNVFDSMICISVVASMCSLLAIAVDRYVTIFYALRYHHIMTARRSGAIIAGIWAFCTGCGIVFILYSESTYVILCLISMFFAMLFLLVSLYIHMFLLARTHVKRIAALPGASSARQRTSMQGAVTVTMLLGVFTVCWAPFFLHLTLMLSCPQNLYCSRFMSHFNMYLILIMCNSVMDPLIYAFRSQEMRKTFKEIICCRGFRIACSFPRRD

COC(=O)[C@@H](NC(=O)c1nn(Cc2ccc(F)cc2)c2ccccc12)C(C)C [AMB-FUBINACA]
IC50 (ADRA2C; antagonist mode vs EC80 of control agonist, 10-point curve): 7.3 µM
inhibitory activity at lower concentrations (ADRA2C; antagonist mode, 1 μM): appreciable inhibitory activity
maximum inhibition (ADRA2C; antagonist mode, concentration-response up to 30 μM): 63.11%
IC50 (CHRM3): 6.96 µM
response of CB1-expressing cells at high concentration (CNR1 (CB1); 30 μM, response decreased above 1 μM): very little activity remaining at 30 μM
EC50 (CNR1 (CB1); data above 1 μM excluded from curve fitting): 42.6 nM
IC50 (FPR1): 7.91 µM
inhibitory activity in concentration-response (GALR1): Activity was only observed at the highest concentration (30 μM)
inhibitory activity in concentration-response (GALR2): did not produce any clear activity
inhibitory activity in concentration-response (GIPR): Activity was only observed at the highest concentration (30 μM)
inhibition in single-point screen (GPR119): inhibited to the greatest extent of any antagonist mode target
IC50 (CCR10): 12.3 µM
IC50 (MRGPRX2): 11.8 µM
inhibitory activity in concentration-response (P2RY6): Activity was only observed at the highest concentration (30 μM)
IC50 (HRH1): 1420 nM
inhibitory activity at lower concentrations (HRH1; antagonist mode, 1 μM): appreciable inhibitory activity
IC50 (HRH2): 13.1 µM
IC50 (MC5R): 14.1 µM
